Measured values from ChEMBL document CHEMBL3301361, “Experimental in vitro DMPK and physicochemical data on a set of publicly disclosed compounds”.

assay: physchem; conditions: octan-1-ol/water, pH 7.4

Structure (SMILES)	logD
CNC1=Nc2ncccc2C(c2ccns2)=NC1c1cccs1 (stereo unspecified)	2.15
COC(=O)c1ccc2c(c1)N(CCN1CCC(NCc3ccc4c(n3)NC(=O)CO4)CC1)C(=O)CO2	0.83
CC1(C)CC(=O)c2c(nc3ccccc3c2N)C1	3
Nc1nnc(Cc2ccc(Cl)cc2)s1	2.34
CNC(=O)c1ccc(Nc2nccc(-c3cnc(C4CC4)n3C(C)C)n2)cc1	2.77
O=C(NCC1CCOCC1)c1ncccc1NC(=O)c1cccc2ccccc12	4.4
C1CCC(NC2CCCCC2)CC1	-0.38
CNC1=Nc2ncccc2C(c2ccco2)=NC1c1ccns1 (stereo unspecified)	1.44
CCCNC(=O)c1nnc2c(-c3cc(C)ccc3OC)cccc2c1N	3.99
CCOC(=O)Nc1cccc([C@@H](c2ccc(C(=O)N(C)CC)cc2)N2CCN(Cc3c[nH]c(C)n3)CC2)c1	2.11
CNC1=Nc2ncccc2C(c2cc[nH]c2)=NC1c1cccs1 (stereo unspecified)	1.73
CCC(CO)NCCNC(CC)CO (stereo unspecified)	-1.42
CCN(CC)C(=O)c1ccc(C(c2cccc3cccnc23)N2CCNCC2)cc1 (stereo unspecified)	0.7
O=C1O[C@]2(CN3CCC2CC3)CN1c1ccc(Br)s1	2
CC(C)[C@@H](CN1CC[C@@](C)(c2cccc(O)c2)[C@@H](C)C1)NC(=O)[C@H]1Cc2ccc(O)cc2CN1 [JDTIC]	2.39
Cc1cc(=O)[nH]c2sc(C(=O)c3ccc(Br)cc3)c(N)c12	2.57
COC(=O)N1CCN(C(=O)Cc2ccc(Cl)c(Cl)c2)[C@@H](CN2CCCC2)C1	1.97
O=C(N[C@H]1CN2CCC1CC2)c1ccc(Cl)cc1 [PNU-282987]	0.6

same assay, conditions: octan-1-ol/water, pH 7.4, LogD7.4

Structure (SMILES)	logD
c1ccc2cnccc2c1 [ISOQUINOLINE]	1.6
O=C(CSc1ccccc1)N1CCN(c2ccccc2)CC1	3.2
c1ccc2c(c1)nnn2-c1ccncc1	1.69
CC[C@H](NC(=O)c1c([S+](C)[O-])c(-c2ccccc2)nc2cc(CN(C)C)ccc12)c1ccccc1 (stereo partly specified)	2.75
COc1cc(N2CCN(C(C)=O)CC2)ccc1Nc1ncc(Cl)c(-c2cnc3ccc(N(C)C)cn23)n1	4.1
CC(C)(C)c1ccc(-c2n[nH]c(NC(=O)c3ccccc3Cl)c2Br)cc1	4.3
COc1ccc(-c2cc(=O)[nH]c(N)n2)cc1	1.52
OC(CCN1CCCCC1)(c1ccccc1)C1CCCCC1 (stereo unspecified) [TRIHEXYPHENIDYL]	2.68
Nc1ccc2c(c1)-c1ccccc1C(=O)C2=O	2.39
Cc1cc(CNc2ncc(Cl)c(Nc3cc(C)[nH]n3)n2)on1	2.68
CNC(=O)c1ccc(CCC(COc2ccc(-c3cccc([N+](=O)[O-])c3)cc2)N2C(=O)CSC2=O)cc1 (stereo unspecified)	3.5
COC(=O)CCCCCCC(=O)Nc1ccc2c(c1)-c1ccccc1C(=O)C2=O	2.6
COC(=O)COc1ccc(O)cc1	0.92
CCN(CCO)CCCC(C)Nc1ccnc2cc(Cl)ccc12 (stereo unspecified) [HYDROXYCHLOROQUINE]	0.77
COc1ccc(-c2coc3cc(O)ccc3c2=O)cc1 [FORMONONETIN]	3.05
Clc1ccc(-c2cn3ccccc3n2)cc1	4
Nc1ccccc1NC(=O)c1ccc(CNC(=O)OCc2cccnc2)cc1 [ENTINOSTAT]	1.26
CC(c1ccccc1)N1Cc2ccccc2C1=O (stereo unspecified)	3
Cc1cccc(S(=O)(=O)NC(=O)N2CCC(N3CCC(Oc4ccc(Cl)c(Cl)c4)CC3)CC2)c1	1.84
CN1CCN2c3ncccc3Cc3ccccc3C2C1 (stereo unspecified) [MIRTAZAPINE]	2.82
O=C(Cc1ccccc1)Nc1nccs1	2.5
O=C(COc1ccccc1O)NC1CCCC1	2.31
COC(=O)c1ccc(CC(=O)N(C)C2CCN(CCC(c3ccccc3)c3ccccc3)CC2)cc1	4
CC(C)NNC(=O)c1ccncc1 [IPRONIAZID]	0.33

Structure (SMILES)	logD
Nc1ncccc1NCc1cccc(-c2cccnc2)c1	3
Cn1cncc1-c1c2c(=O)n(CC#CCO)c(=O)n(CC3CC3)c2nn1Cc1ccnc2ccc(Cl)cc12	2.55
FC(F)(F)c1cc(CO[C@H]2CCCN[C@H]2c2ccccc2)cc(C(F)(F)F)c1	3.6
CCOC(=O)[C@H](Cc1ccc([N+](=O)[O-])cc1)NC(=O)c1ccccc1	2.79
Cc1ccc(O)c(O)c1	1.37
CC(C)N(c1nnc(N)s1)C(C)C	1.49
CONC(=O)c1cnc(N2CCC(NC(=O)c3[nH]c(C)c(Cl)c3Cl)CC2)s1	3.1
NS(=O)(=O)c1cc2c(cc1Cl)NC(C1CC3C=CC1C3)NS2(=O)=O (stereo unspecified) [CYCLOTHIAZIDE]	2.12
CNc1cc(C(=O)Nc2ccc(N3CCOCC3)cc2)nc2c(N3CCN(C)CC3)cc(OC)cc12	2.93
COc1ccc(Oc2cccc(CN3CCCC(n4cc(C)c(=O)[nH]c4=O)C3)c2)cc1 (stereo unspecified)	3.17
CC(C)C(NC(=O)Cn1c(-c2ccc(F)cc2)ncc(N)c1=O)C(=O)C(F)(F)F (stereo unspecified)	1.05
O=C(NC1Cc2ccccc2N(CCCO)C1=O)c1cc2cc(Cl)sc2[nH]1 (stereo unspecified)	3.49
NC(=O)c1ccc(=O)n(Cc2ccc(F)c(F)c2)c1	1.37
O=C(Nc1ccc(Cl)nc1)c1ccc(F)c(Cl)c1	3.64
Oc1nc(S)nc2nc[nH]c12	-1.48
CC(C)Cn1c(=O)n(C)c(=O)c2c(C(=O)N3CCCC3)c(Cc3ccccc3C(F)(F)F)sc21	3.8
N=C(N)Nc1ccc(C(=O)Oc2ccc([N+](=O)[O-])cc2)cc1	0.5
CN(C)C(=O)c1ccc(CN2CCc3cc4nc(N)sc4cc3CC2)cc1	1.72
COc1cc(F)ccc1-c1cncc(CNC2CCCCC2)c1	2.6
CC1(C(=O)NC2CCCCC2)CCC(=O)N1Cc1cccs1 (stereo unspecified)	2.15
Cc1ncc(-c2nc(Nc3ccc(C(=O)NC4CCN(C)CC4)cc3)ncc2F)n1C(C)C	2.13
CC(=O)Nc1cccc(S(=O)(=O)Nc2ccc(-c3ccccc3)n(CC(=O)NC(C(=O)C(F)(F)F)C(C)C)c2=O)c1 (stereo unspecified)	2.43
CNC(=O)c1cnn(-c2ccccc2)c1NS(=O)(=O)c1ccc(C)cc1	-0.54
COc1ccc(Nc2ccccc2C(=O)O)cc1	1.2

Structure (SMILES)	logD
Cc1ccccc1C(=O)N1CCN(c2ccccn2)CC1	2.18
CCCc1c(C(=O)Nc2cc(C)on2)cnn1-c1ccccc1	3.7
CC(C)C(NC(=O)Cn1c(-c2ccccc2)cc2c(=O)n(CCN3CCOCC3)c(=O)[nH]c2c1=O)C(=O)C(F)(F)F (stereo unspecified)	1.91
Cc1[nH]c2nc(NCc3ccc(Cl)cc3)nn2c(=O)c1Cc1ccccc1	3.7
O=S(=O)(Nc1ccc2[nH]c(-c3ccc(Br)o3)nc2c1)c1ccccc1	4.38
COc1ncc2ncc(=O)n(CCN3CCC(NCc4cc5c(cn4)OCCO5)CC3)c2n1	-0.14
CC#Cc1ccnc(-c2cccc([C@@]3(c4cc(C)c(=O)n(CC)c4)N=C(N)c4c(F)cccc43)c2)c1	4.4
O=Cc1ccccc1B(O)O	0.83
Nc1ccc(S(=O)(=O)N2CCCC2)cc1	0.98
CN(C(=O)Cc1ccc(O)cc1)C1CCN(CCC(c2ccccc2)c2ccccc2)CC1	3.3
CC(O)(C(=O)Nc1ccc(S(=O)(=O)c2ccc(F)cc2)cc1)C(F)(F)F (stereo unspecified)	3.12
CN1CCCCC1CCN1c2ccccc2Sc2ccc([S+](C)[O-])cc21 (stereo unspecified) [MESORIDAZINE]	1.6
O=C(O)c1ccccc1C(=O)N1CCC(N2CCC(Oc3ccc(Cl)c(Cl)c3)CC2)CC1	1.73
COc1cc(F)ccc1-c1cncc(CNC(=O)c2cnccn2)c1	2.5
O=c1oc2ccc(O)cc2cc1-c1ccc(O)cc1	2.9
CC(C)C(NC(=O)Cn1c(-c2ccccc2)ccc(NC=O)c1=O)C(=O)C(F)(F)F (stereo unspecified)	1.84
FC(F)(F)c1cc(COCC(c2ccccc2)N2CCNCC2)cc(C(F)(F)F)c1 (stereo unspecified)	2.9
COc1cc(N2CC[C@@H](N(C)C)C2)c2[nH]c(C(=O)Nc3ccc(N4CCOCC4)cc3)cc(=O)c2c1	2.7
COc1cc2ncnc(Nc3ccc(F)c(Cl)c3)c2cc1OCCCN1CCCC1	3.13
C[C@H]1O[C@@H](n2cnc3c(N)nc(OCC4CC(F)(F)C4(F)F)nc32)[C@H](O)[C@@H]1O (stereo partly specified)	1.42
O=C(COCc1ccncc1)N1CCC(c2ccc(Cl)cc2)CC1	2.74
O=C(CN1C(=O)C(NC(=O)c2cc3cc(Cl)sc3[nH]2)Cc2ccccc21)NO (stereo unspecified)	2.4
CC(C)Cn1c(=O)n(C)c(=O)c2c(S(=O)(=O)N3CC[C@@H](O)C3)c(Cc3ccccc3C(F)(F)F)sc21	3.32
O=C1/C(=N\O)c2ccccc2N1Cc1ccccc1[N+](=O)[O-]	2.07

Structure (SMILES)	logD
Cc1nc(C(=O)N2CCCC3(CCN(Cc4ccc(Cl)cc4)CC3)C2)cs1	0.64
CNC(=O)c1cccc(NC(=O)Nc2cccc(C#N)c2)c1CN1CCC(Cc2ccc(F)cc2)CC1	3.97
CCNc1ccc(-c2ccccc2)n(CC(=O)NC(C(=O)C(F)(F)F)C(C)C)c1=O (stereo unspecified)	2.37
COc1cccc([C@@H](C)NCCCc2ccccc2Cl)c1	3
COc1cc(-c2c(F)ccc3c(N)c(C(=O)NC4CC4)nnc23)c(OC)nn1	2.75
Nc1nccc(-c2cccs2)n1	1.75
CC(C)Cn1c(=O)n(C)c(=O)c2c(C(=O)N3CC[C@@H](O)C3)c(Oc3cccc4ccccc34)sc21	2.87
CCOc1ccc(-c2cnc3n2CCCCC3)cc1	3.01
N#Cc1ccccc1Oc1ccc(C(=O)NCc2ccncc2)cc1	2.57
Cc1cccc(NC(=O)NCC(c2cccnc2)N2CCOCC2)c1 (stereo unspecified)	2
CCc1cc(O)c(Oc2ccc(C(N)=O)cc2F)cc1F	2.87
NC(N)=Nc1cc(Cl)nc(-c2ccccc2)n1	2.16
CN1CCN(C(=O)c2cc3cc(F)ccc3[nH]2)CC1	1.97
Cc1cccc(C#Cc2ccccc2)n1	3.6
O=C(O)Cc1ccc(-c2ccc(NC(=O)c3nnc(Nc4ccccc4F)o3)cc2)cc1	1.5
CSc1ncccc1C(=O)NCCc1ccc(Cl)cc1	3.31
Cc1cc(Oc2ccnc(Nc3ccc(N4CCOCC4)cc3)c2)c(-c2ccccn2)nc1C	2.59
CCN1CCC[C@@H](CN2CCN(C(=O)Nc3ccc(Cl)c(Cl)c3)CC2)C1	1.94
Cc1ccc(-c2ncc(CN3CCOCC3)s2)cc1NC(=O)c1ccc(OCc2ccccn2)cc1	3.1
COc1ccc(Cl)c(Nc2ncnc3cc(OC)cc(OC4CCN(C)CC4)c23)c1	3.6
CC(C)CNCc1ccc(-c2ccccc2S(=O)(=O)N2CCCC2)cc1 [PF-04455242]	1.9
